Measurements from ChEMBL document CHEMBL5380880, “Novel drug-like fluorenyl derivatives as selective butyrylcholinesterase and β-amyloid inhibitors for the treatment of Alzheimer's disease” (Bioorg Med Chem, 2023).
Active and inactive are the calls of the source. No cut-off for these calls is given here.

Assays:
[1] = Lipophilicity, logP of compound; format: physicochemical; conditions: octanol/water
[2] = target: Amyloid-beta precursor protein (Homo sapiens) (UniProt P05067); test: Inhibition of amyloid beta (unknown origin) aggregation at 10 uM incubated for 5 mins by thioflavin fluorescent based analysis relative to control
Chain of Amyloid-beta precursor protein (Homo sapiens) (P05067 whole entry): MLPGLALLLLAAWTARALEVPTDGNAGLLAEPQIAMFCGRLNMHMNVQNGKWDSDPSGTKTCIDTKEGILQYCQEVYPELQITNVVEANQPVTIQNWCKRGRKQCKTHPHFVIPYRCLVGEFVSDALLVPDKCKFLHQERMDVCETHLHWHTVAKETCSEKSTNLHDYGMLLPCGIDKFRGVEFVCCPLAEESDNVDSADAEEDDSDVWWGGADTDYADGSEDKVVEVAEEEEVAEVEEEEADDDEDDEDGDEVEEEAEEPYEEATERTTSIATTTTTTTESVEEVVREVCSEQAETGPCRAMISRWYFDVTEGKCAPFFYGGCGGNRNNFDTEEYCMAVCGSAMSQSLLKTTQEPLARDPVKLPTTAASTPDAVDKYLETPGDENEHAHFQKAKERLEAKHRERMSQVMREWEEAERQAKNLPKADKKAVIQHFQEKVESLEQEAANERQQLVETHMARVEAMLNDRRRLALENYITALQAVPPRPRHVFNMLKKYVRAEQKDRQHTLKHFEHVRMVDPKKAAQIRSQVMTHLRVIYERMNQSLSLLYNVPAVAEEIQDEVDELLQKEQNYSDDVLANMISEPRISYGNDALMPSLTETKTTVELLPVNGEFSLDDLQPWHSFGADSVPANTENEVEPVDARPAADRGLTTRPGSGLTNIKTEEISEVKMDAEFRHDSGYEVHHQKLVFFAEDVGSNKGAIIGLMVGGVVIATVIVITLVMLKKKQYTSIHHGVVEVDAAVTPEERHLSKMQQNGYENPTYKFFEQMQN

[3] = Lipophilicity, logD of compound at pH 7.4; format: physicochemical; conditions: buffer
Cholinesterase = Cholinesterase (Equus caballus, UniProt P81908); test: Inhibition of equine serum BuChE by Ellman's method
Chain of Cholinesterase (P81908 whole entry): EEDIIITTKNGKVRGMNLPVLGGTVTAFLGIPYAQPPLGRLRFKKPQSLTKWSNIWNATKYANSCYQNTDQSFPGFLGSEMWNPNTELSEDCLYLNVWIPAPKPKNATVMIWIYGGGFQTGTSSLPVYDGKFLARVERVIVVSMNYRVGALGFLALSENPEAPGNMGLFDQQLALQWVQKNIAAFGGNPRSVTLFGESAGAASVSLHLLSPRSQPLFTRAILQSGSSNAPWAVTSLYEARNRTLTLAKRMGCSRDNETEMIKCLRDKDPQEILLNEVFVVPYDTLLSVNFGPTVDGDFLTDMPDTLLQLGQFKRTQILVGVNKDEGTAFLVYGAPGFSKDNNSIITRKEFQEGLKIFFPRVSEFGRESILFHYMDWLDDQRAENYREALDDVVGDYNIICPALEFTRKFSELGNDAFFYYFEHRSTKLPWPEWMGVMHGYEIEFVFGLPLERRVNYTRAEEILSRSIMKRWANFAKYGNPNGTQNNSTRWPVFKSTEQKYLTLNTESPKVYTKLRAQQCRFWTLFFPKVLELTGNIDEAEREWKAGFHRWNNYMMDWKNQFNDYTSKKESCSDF

[4] = target: Cholinesterase (Equus caballus) (UniProt P81908); test: Inhibition of equine serum BuChE
Chain of Cholinesterase (Equus caballus) (P81908 whole entry): as above

[5] = target: Cholinesterase (Equus caballus) (UniProt P81908); test: Inhibition of equine serum BuChE at 10 uM by Ellman's method relative to control
[6] = target: Acetylcholinesterase (Electrophorus electricus) (UniProt O42275); test: Inhibition of Electric eel AChE relative to control; conditions: concentration not given here
Chain of Acetylcholinesterase (Electrophorus electricus) (O42275 24-633 limits assumed): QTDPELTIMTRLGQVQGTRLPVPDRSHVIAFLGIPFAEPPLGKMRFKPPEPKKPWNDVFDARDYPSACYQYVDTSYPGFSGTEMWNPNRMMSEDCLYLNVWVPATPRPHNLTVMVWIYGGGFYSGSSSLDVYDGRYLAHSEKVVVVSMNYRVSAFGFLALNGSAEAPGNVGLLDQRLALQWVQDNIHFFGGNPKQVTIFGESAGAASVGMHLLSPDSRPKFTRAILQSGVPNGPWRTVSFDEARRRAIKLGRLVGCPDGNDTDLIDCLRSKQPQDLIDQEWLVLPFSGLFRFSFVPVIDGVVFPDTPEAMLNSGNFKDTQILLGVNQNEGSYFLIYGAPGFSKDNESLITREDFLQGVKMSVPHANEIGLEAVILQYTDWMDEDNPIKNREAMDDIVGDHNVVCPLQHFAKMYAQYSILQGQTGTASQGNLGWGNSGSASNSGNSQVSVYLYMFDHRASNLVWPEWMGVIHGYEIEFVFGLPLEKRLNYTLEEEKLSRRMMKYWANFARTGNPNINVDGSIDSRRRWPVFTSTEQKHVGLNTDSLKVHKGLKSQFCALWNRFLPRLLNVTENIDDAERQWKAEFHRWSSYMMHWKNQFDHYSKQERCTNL

Row | SMILES | logP [1] | inhibition [2] [%] | logD [3] | IC50 (Cholinesterase) [µM] | inhibition [4] | inhibition [5] [%] | inhibition [6] [%]
1 | CC(C)(C)c1cccc(CNCC(O)CNCCC(c2ccccc2)c2ccccc2)c1 (centres undefined) | 5.96 | 4.6 | 3.7 |  |  |  | 
2 | O=C(CC(c1ccccc1)c1ccccc1)NCC(O)CNCC1CCCCC1 (centres undefined) |  | 4.6 | 1.43 | 0.078 |  |  | 
3 | O=C(NC[C@@H](O)CNCC1CCCCCC1)C1c2ccccc2-c2ccccc21 |  | 4.6 |  | 0.031 |  |  | 
4 | O=C(NC[C@H](O)CNCC1CCCCCC1)C1c2ccccc2-c2ccccc21 |  | 4.6 |  | 0.288 |  |  | 
5 | Nc1c2c(nc3ccccc13)CCCC2 |  | 4.6 |  |  |  |  | 
6 | CC(C)(C)CNCC(O)CNC(=O)CC1c2ccccc2-c2ccccc21 (racemic) |  | 4.6 | 0.73 | 0.672 |  |  | 
7 | O=C(NCC(O)CNCC1CCCCC1)C1c2ccccc2-c2ccccc21 (racemic) |  | 4.6 | 0.91 | 0.231 |  |  | 
8 | O=C(NCC(O)CNCCC1CCCCC1)C1c2ccccc2-c2ccccc21 (racemic) |  | 60.7 | 1.41 | 0.475 |  |  | 
9 | O=C(CC1c2ccccc2-c2ccccc21)NCC(O)CNCCC1CCCCC1 (racemic) |  | 4.6 | 1.6 | 0.422 |  |  | 
10 | O=C(NCC(O)CNCC1CCCCCC1)C1c2ccccc2-c2ccccc21 (racemic) |  | 4.6 | 1.36 | 0.038 |  |  | 
11 | O=C(CC1c2ccccc2-c2ccccc21)NCC(O)CNCC1CCCCCC1 (racemic) |  | 4.6 | 1.55 | 1.09 |  |  | 
12 | O=C(CC1c2ccccc2-c2ccccc21)NCC(O)CNCC1CCCCC1 (racemic) |  | 4.6 | 1.1 | 1.69 |  |  | 
13 | O=C(CC1c2ccccc2-c2ccccc21)NCC(O)CNCC1CC1 (racemic) |  | 4.6 | -0.1 |  | inactive | 44.5 | > 20
14 | O=C(NCC(O)CNCc1ccccc1)C1c2ccccc2-c2ccccc21 (racemic) |  | 4.6 | 1.78 | 0.627 |  |  | 
15 | O=C(CC1c2ccccc2-c2ccccc21)NCC(O)CNC1CCCCC1 (racemic) |  | 4.6 | 0.79 | 1.49 |  |  | 
16 | CC(C)(C)CNCC(O)CNC(=O)C1c2ccccc2-c2ccccc21 (racemic) |  | 4.6 | 0.54 | 0.385 |  |  | 
17 | O=C(CC1c2ccccc2-c2ccccc21)NCC(O)CNCC1CCCC1 (racemic) |  | 4.6 | 0.66 | 1.71 |  |  | 
18 | O=C(CC1c2ccccc2-c2ccccc21)NCC(O)CNCc1ccccc1 (racemic) |  | 4.6 | 1.88 | 4.33 |  |  | 
19 | O=C(NCC(O)CNCC1CC1)C1c2ccccc2-c2ccccc21 (racemic) |  | 4.6 | -0.29 | 0.435 |  |  | 
20 | O=C(NCC(O)CNC1CCCCC1)C1c2ccccc2-c2ccccc21 (racemic) |  | 4.6 | 0.6 | 0.336 |  |  | 
21 | O=C(NCC(O)CNCC1CCCC1)C1c2ccccc2-c2ccccc21 (racemic) |  | 4.6 | 0.47 | 0.379 |  |  | 
22 | O=C(NCC(O)CNCC(F)(F)F)C1c2ccccc2-c2ccccc21 (racemic) |  | 67.6 | 2.33 | 12.9 |  |  | 
